Key:
[1] = target: T1, Serine/threonine-protein kinase TBK1 (Homo sapiens, UniProt Q9UHD2); assay: TBK Biochemical Assay
T1 sequence (Q9UHD2 whole entry): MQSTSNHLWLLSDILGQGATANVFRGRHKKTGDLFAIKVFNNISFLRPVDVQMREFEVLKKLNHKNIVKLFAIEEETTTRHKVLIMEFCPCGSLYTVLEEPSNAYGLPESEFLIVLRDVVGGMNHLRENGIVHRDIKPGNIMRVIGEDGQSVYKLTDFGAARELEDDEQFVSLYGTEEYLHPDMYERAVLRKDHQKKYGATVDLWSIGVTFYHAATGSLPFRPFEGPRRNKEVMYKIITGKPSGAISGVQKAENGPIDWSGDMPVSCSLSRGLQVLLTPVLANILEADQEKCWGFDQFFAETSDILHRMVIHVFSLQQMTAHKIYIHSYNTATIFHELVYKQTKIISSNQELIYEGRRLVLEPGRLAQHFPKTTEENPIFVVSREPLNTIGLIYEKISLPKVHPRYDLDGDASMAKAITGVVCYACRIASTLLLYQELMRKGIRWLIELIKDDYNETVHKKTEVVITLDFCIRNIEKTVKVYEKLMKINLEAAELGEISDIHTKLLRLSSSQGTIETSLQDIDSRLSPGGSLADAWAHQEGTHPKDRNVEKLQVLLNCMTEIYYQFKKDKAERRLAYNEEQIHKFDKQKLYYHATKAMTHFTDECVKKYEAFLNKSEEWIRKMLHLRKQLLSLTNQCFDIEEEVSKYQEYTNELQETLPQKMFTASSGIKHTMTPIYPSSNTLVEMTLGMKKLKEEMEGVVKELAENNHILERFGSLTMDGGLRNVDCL
Protocol: (§1) Test compounds were transferred into Labcyte polypropylene 384 well plates (P055-25) and diluted to 3 mM using DMSO. 3 mM test compounds were dispensed using Labcyte ECHO dose response module into Greiner 784075 plates (columns 3-12 and 13-22, 10 point 1:4) so that high concentration was 30 uM final. 100 uM of a reference compound (1 uM final high concentration). Backfilling was performed if necessary so that all wells contain 1% DMSO final:add 75 nl DMSO/well into columns 1, 2 and 24 using Labcyte Echo.add 75 nl 1.0 mM staurosporine/well into column 23 using Labcyte Echo (10 uM final)add 4.5 ul enzyme/well using multidrop dispenseradd 3 ul substrate/well using multidrop dispenserincubate at 25° C. in Heidolph incubator for 90 min.add 7.5 ul 2× stop buffer using multidrop dispenserread on labchip ez reader II using TBK1.jobRaw data files were opened in the Caliper LabChip Reviewer program (Version 3.0.265.0 SP2) and peak assignments were adjusted to reflect substrate first with the software's post-run analysis options. A spline-fit baseline was applied using the software's analysis algorithm.

[2] = target: T2, Inhibitor of nuclear factor kappa-B kinase subunit epsilon (Homo sapiens, UniProt Q14164); assay: IKKe Biochemical Assay
T2 sequence (Q14164 whole entry): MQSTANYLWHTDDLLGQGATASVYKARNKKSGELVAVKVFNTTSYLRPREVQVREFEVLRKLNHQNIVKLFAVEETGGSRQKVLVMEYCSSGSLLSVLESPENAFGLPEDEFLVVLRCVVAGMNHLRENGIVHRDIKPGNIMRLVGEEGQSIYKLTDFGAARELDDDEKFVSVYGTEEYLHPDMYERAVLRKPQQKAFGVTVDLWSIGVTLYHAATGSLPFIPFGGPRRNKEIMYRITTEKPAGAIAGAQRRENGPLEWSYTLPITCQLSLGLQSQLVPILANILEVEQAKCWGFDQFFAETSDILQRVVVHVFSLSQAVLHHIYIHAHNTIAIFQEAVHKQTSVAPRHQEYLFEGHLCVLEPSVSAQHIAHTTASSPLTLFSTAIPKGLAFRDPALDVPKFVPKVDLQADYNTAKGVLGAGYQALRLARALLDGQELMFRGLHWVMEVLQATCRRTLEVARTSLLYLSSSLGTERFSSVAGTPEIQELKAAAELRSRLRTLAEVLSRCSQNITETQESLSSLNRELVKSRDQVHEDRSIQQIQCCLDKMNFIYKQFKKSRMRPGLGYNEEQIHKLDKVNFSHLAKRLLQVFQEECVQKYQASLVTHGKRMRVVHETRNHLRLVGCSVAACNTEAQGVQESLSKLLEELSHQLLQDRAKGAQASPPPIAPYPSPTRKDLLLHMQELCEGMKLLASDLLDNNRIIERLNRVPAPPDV
Protocol: as §1, with “C.” for “C. in Heidolph incubator”, “bufferread” for “buffer using multidrop dispenserread”, “IKKε. jobRaw” for “TBK1.jobRaw”

IC50 [1]: < 100 nM
IC50 [2]: < 100 nM
SMILES: COc1nc(Nc2cc(-c3ccc(O[C@@H]4CCN(C(=O)[C@@H](C)O)CC4(F)F)c(C#N)c3)ncn2)ccc1N1CCN(C2COC2)CC1 [US11440899, Example 96]
